Source: patent US20240287138A1, “CYCLIC PEPTIDES FOR INHIBITING TNF RECEPTOR 1 ACTIVITY” (Merck Sharp & Dohme LLC, priority 2023, published 2024)
Numbered stars: 1 amine (or outer) side, 2 acyl side, 3 side chain; on linkers, the order of the positions; unused ones are H or OH. Bridge positions count the residues as written; N and C are the ends. Square brackets hold non-standard residues; d marks the D form. Peptide text beside a SMILES is read from it. * marks the point of attachment. Trp(βS-Me,7-OMe) = COc1cccc2c([C@H](C)[C@H](N)C(=O)O)c[nH]c12; X24 = O=C(O)c1ccc([C@@H](O)[C@H](N[*:1])C(=O)[*:2])cc1; X28 = NC(=O)c1ccc([C@H](O)[C@H](N[*:1])C(=O)[*:2])cc1; Trp(7-CN) = N#Cc1cccc2c(C[C@H](N)C(=O)O)c[nH]c12; Trp(7-Cl) = N[C@@H](Cc1c[nH]c2c(Cl)cccc12)C(=O)O; X29 = NC(=O)Cc1cccc(C[C@H](N[*:1])C(=O)[*:2])c1; Phe(4-CONH2) = NC(=O)c1ccc(C[C@H](N)C(=O)O)cc1; Phe(4-COOH) = N[C@@H](Cc1ccc(C(=O)O)cc1)C(=O)O; Trp(7-aza) = N[C@@H](Cc1c[nH]c2ncccc12)C(=O)O; Pip(5R-OH) = O=C(O)[C@@H]1CC[C@@H](O)CN1; X1 = O=C([C@@H]1CC[C@H](N[*:1])C1)[*:2]; Gly(N(CH2)3COOH) = O=C(O)CCCNCC(=O)O; Pip(4-aza) = O=C(O)[C@@H]1CNCCN1; 4Pal = N[C@@H](Cc1ccncc1)C(=O)O; NMeE = CN[C@@H](CCC(=O)O)C(=O)O; dHyp = O=C(O)[C@H]1C[C@H](O)CN1; Pip = O=C(O)[C@@H]1CCCCN1; αMeS = C[C@](N)(CO)C(=O)O; Nle = CCCC[C@H](N)C(=O)O; Ethyl(2-NH2) = NCC*; Sar = CNCC(=O)O; X22 = C1CC1C*

Columns and labels:
[1] = target: T1, human soluble TNFR1 (sTNFR1) (Homo sapiens, UniProt P19438); assay: Human sTNFR1-peptide displacement assay (LanthaScreen Eu TR-FRET binding assay)
T1 construct: made in house; host or cells: Sf21 (baculovirus)
T1 sequence (P19438 with tags, fused parts or gaps): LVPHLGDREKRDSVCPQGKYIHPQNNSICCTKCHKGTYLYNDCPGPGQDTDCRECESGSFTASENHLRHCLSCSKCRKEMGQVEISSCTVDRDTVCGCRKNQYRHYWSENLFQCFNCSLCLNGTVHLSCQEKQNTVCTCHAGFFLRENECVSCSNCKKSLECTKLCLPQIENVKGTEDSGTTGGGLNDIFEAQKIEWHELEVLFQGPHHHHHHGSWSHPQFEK
Outline: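 Readout is the 665/615 nm TR-FRET ratio (Eu anti-His donor, streptavidin-Alexa647 acceptor), normalized to DMSO and saturating displacer, fit by Morrison-based five-parameter logistic for Kd^app. His-tagged sTNFR1 (1-211) prebound to 100 nM biotinylated peptide SEQ ID NO.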

human TNFR2 ECD protein = target: T2, human TNFR2 ECD protein (Homo sapiens, UniProt P20333); assay: SPR off-target binding (selectivity) to human TNFR2 ECD
T2 construct: HRV 3C protease cleavage site (C); 6His (C, cleaved yes); made in house; host or cells: Sf21 insect cells (baculovirus), secreted
T2 sequence (P20333 23-257): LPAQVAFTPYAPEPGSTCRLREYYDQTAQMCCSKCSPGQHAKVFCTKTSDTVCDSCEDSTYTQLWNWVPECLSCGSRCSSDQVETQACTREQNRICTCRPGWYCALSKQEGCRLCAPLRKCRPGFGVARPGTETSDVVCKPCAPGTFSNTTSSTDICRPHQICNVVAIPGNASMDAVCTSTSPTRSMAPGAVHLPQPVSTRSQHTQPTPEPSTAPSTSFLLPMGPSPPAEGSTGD
Outline: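 Insect-cell human receptor ECDs, enzymatically biotinylated, immobilized via streptavidin capture chip. Peptide binding and dissociation measured in RU in pH 7.4 HEPES buffer containing 2% DMSO; chip regenerated per analyte. Rate constants give affinity.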

Compound	Kd [1] [nM]	Kd (human TNFR2 ECD protein) [nM]	IC50 [1] [nM]
COc1cccc2c([C@H](C)[C@@H]3NC(=O)CN(C)C(=O)[C@H](Cc4ccc(C(=O)O)cc4)NC(=O)[C@H](Cc4ccc(C(N)=O)cc4)NC(=O)[C@](C)(CO)NC(=O)[C@H](Cc4c[nH]c5c(Cl)cccc45)NC(=O)[C@H](Cc4ccc(C(=O)O)cc4)NC(=O)[C@H](CC(N)=O)NC(=O)[C@H]4C[C@H](O)CN4C(=O)[C@H](Cc4c[nH]c5ncccc45)NC(=O)[C@@H]4CC[C@@H](O)CN4C(=O)[C@H](Cc4ccncc4)NC(=O)[C@H](COCCN)NC(=O)[C@@H]4CC[C@@H](C4)NC3=O)c[nH]c12 [SEQ ID NO. 148] (cyclo([4Pal][Pip(5R-OH)][Trp(7-aza)][dHyp]N[Phe(4-COOH)][Trp(7-Cl)][αMeS][Phe(4-CONH2)][Phe(4-COOH)][Sar][Trp(βS-Me,7-OMe)][X1]S(Ethyl(2-NH2))))	0.9	> 1000	–
COc1cccc2c([C@H](C)[C@@H]3NC(=O)CN(C)C(=O)[C@H](Cc4ccc(C(=O)O)cc4)NC(=O)[C@H](Cc4ccc(C(N)=O)cc4)NC(=O)[C@](C)(CO)NC(=O)[C@H](Cc4c[nH]c5c(C#N)cccc45)NC(=O)[C@H](Cc4ccc(C(=O)O)cc4)NC(=O)[C@H](CC(N)=O)NC(=O)[C@H]4C[C@H](O)CN4C(=O)[C@H](Cc4c[nH]c5ncccc45)NC(=O)[C@@H]4CC[C@@H](O)CN4C(=O)[C@H](Cc4ccncc4)NC(=O)[C@H](COCC4CC4)NC(=O)[C@@H]4CC[C@@H](C4)NC3=O)c[nH]c12 [SEQ ID NO. 149] (cyclo([4Pal][Pip(5R-OH)][Trp(7-aza)][dHyp]N[Phe(4-COOH)][Trp(7-CN)][αMeS][Phe(4-CONH2)][Phe(4-COOH)][Sar][Trp(βS-Me,7-OMe)][X1]S(X22)))	0.21	> 1000	–
CCCC[C@@H]1NC(=O)[C@@H]2CC[C@@H](C2)NC(=O)[C@H]([C@@H](C)c2c[nH]c3c(OC)cccc23)NC(=O)CN(C)C(=O)[C@H](Cc2cccc(CC(N)=O)c2)NC(=O)[C@H](Cc2ccc(C(=O)O)cc2)NC(=O)[C@](C)(CO)NC(=O)[C@H](Cc2c[nH]c3c(Cl)cccc23)NC(=O)[C@H](Cc2ccncc2)NC(=O)[C@H](CC(N)=O)NC(=O)[C@H](CCC(=O)O)N(C)C(=O)[C@H](Cc2c[nH]c3ccccc23)NC(=O)[C@@H]2CNCCN2C(=O)[C@H](Cc2ccncc2)NC1=O [SEQ ID NO. 153] (cyclo([4Pal][Trp(7-Cl)][αMeS][Phe(4-COOH)][X29][Sar][Trp(βS-Me,7-OMe)][X1][Nle][4Pal][Pip(4-aza)]W[NMeE]N))	0.23	> 1000	–
CCCC[C@@H]1NC(=O)[C@@H]2CC[C@@H](C2)NC(=O)[C@H]([C@@H](C)c2c[nH]c3c(OC)cccc23)NC(=O)CN(C)C(=O)[C@H]([C@H](O)c2ccc(C(=O)O)cc2)NC(=O)[C@H]([C@@H](O)c2ccc(C(N)=O)cc2)NC(=O)[C@](C)(CO)NC(=O)[C@H](Cc2c[nH]c3c(C#N)cccc23)NC(=O)[C@H](Cc2ccncc2)NC(=O)[C@H](CC(N)=O)NC(=O)[C@H]2C[C@H](O)CN2C(=O)[C@H](Cc2c[nH]c3ccccc23)NC(=O)[C@@H]2CC[C@@H](O)CN2C(=O)[C@H](Cc2ccncc2)NC1=O [SEQ ID NO. 155] (cyclo([4Pal][Trp(7-CN)][αMeS][X28][X24][Sar][Trp(βS-Me,7-OMe)][X1][Nle][4Pal][Pip(5R-OH)]W[dHyp]N))	0.1	> 1000	–
CCCC[C@@H]1NC(=O)CSC[C@@H](C(N)=O)NC(=O)[C@H]([C@@H](C)c2c[nH]c3c(OC)cccc23)NC(=O)CN(C)C(=O)[C@H](Cc2ccc(O)cc2)NC(=O)[C@H](Cc2ccc(C(=O)O)cc2)NC(=O)[C@](C)(CO)NC(=O)[C@H](Cc2c[nH]c3c(Cl)cccc23)NC(=O)[C@H](Cc2ccncc2)NC(=O)[C@H](CC(N)=O)NC(=O)CN(CCCC(=O)O)C(=O)[C@H](Cc2c[nH]c3ncccc23)NC(=O)[C@@H]2CCCCN2C(=O)[C@H](Cc2ccncc2)NC1=O [SEQ ID NO. 157] ({CH2CO}-[Nle][4Pal][Pip][Trp(7-aza)][Gly(N(CH2)3COOH)]N[4Pal][Trp(7-Cl)][αMeS][Phe(4-COOH)]Y[Sar][Trp(βS-Me,7-OMe)]C-NH2; thioether N-14)	0.64	> 1000	0.72
